{"source": "patent US20040228844A1", "about": "“Method for controlling harmful plant-parasitic nematodes” (priority 2003, published 2004)", "key": {"[1]": {"system": "Meloidogyne incognita", "experiment": "Test Example 2: gall control on cucumber seedlings in nematode-infested soil", "type": "in vivo", "details": "20 kg /1000 m^2, 32 days after transplantation, (C−S)×100/C", "procedure": "To 3 kg of the Meloidogyne incognita-infested soil was applied each (100 mL) of the test solutions diluted at given concentrations and then the resulting soil was thoroughly mixed.\nThe gall control value was calculated by the following equation:\nGall control value=(C−S)×100/C\nwherein C is an average gall number per plant in a non-treated group, and S is an average gall number per plant in a treated group."}, "[2]": {"system": "Meloidogyne incognita", "experiment": "Test Example 1: root-knot damage of cucumber seedlings in nematode-infested soil", "details": "20 kg per 1000 m^2, soil mixing, 50 days after transplantation, scale 0 (no root-knots) to 5 (dead), average per 10 plants", "quoted_text": "To 5 kg of nematode-infested soil (nematode density: 2255 nematodes per 20 g (investigation method: Bellman's method)) in which Meloidogyne incognita seriously grew was applied each (100 mL) of the test solutions diluted at given concentrations: and then the resulting soil was thoroughly mixed. […] (diameter: about 3 mm), 500 g of each of the soil to which each test solution was applied and mixed was placed. Cucumber seedlings (14 days after sowing, 2 plants per cup, 5 replications) were transplanted in the cup, which contained each treated soil. After transplantation, the plants were left in a glass greenhouse.\nThe degree of root-knot damages was evaluated according to the following criteria:\n5: The plant is withered and dead due to parasitism of nematodes.\n4: A number of root-knots, which range to form-large root-knots, are observed on the entire roots.\n3: Root-knots are observed on the entire roots, and large root-knots being partly formed.\n2: Formation of root-knots is partly observed on the root, and some of them ranging, but no large root-knot is observed.\n1: A little formation of root-knots is observed.\n0: No formation of root-knots is found."}}}
{"smiles": "CSCC[C@H](N)C(=O)O", "note": "[Component A Agent, methionine]", "values": [{"measurement": "Gall Control Value", "setting": "[1]", "result": 44}, {"measurement": "Average Degree of Root-Knots Damages", "setting": "[2]", "result": 3.2}]}
